Reference: patent US12522602B2, “Derivatives having 2,3-dihydro-1H-indene or 2,3-dihydrobenzofuran moiety or pharmaceutically acceptable salt thereof and pharmaceutical compositions comprising the same” (YUHAN CORPORATION, priority 2019, dated 2026)
Like-named read-outs stand apart in the source and are kept apart here.

Tested on: GM1 production in Jurkat cells
Test: cells
Assay type: cell-based

| SMILES | IC50 (Homo sapiens, Jurkat, 72 h) [nM] | other results |
| --- | --- | --- |
| CC1(C)Cc2cc(-c3cc(F)ccc3F)ccc2C1NC(=O)O[C@@H]1CN2CCC1CC2 (stereo partly drawn) [Example 88, (S)-quinuclidin-3-yl (5-(2,5-difluorophenyl)-2,2-dimethyl-2,3-dihydro-1H-inden-1-yl)carbamate] | 11.1 |  |
| CC1(C)Cc2ccc(-c3ccc(C(F)(F)F)cc3)cc2C1NC(=O)O[C@@H]1CN2CCC1CC2 (stereo partly drawn) [Example 51, (S)-quinuclidin-3-yl (2,2-dimethyl-6-(4-(trifluoromethyl)phenyl)-2,3-dihydro-1H-inden-1-yl)carbamate] | 30.2 |  |
| COc1c(C)cc(-c2cc3c(cc2F)C(NC(=O)O[C@@H]2CN4CCC2CC4)C(C)(C)C3)cc1C (stereo partly drawn) [Example 366, (S)-quinuclidin-3-yl (6-fluoro-5-(4-methoxy-3,5-dimethylphenyl)-2,2-dimethyl-2,3-dihydro-1H-inden-1-yl)carbamate] | 79.4 |  |
| CCCOc1ccc(-c2ccc3c(c2)CC(C)(C)C3NC(=O)O[C@@H]2CN3CCC2CC3)cc1Cl (stereo partly drawn) [Example 207, (S)-quinuclidin-3-yl (5-(3-chloro-4-propoxyphenyl)-2,2-dimethyl-2,3-dihydro-1H-inden-1-yl)carbamate] | 58.6 |  |
| Cc1cc(-c2ccc3c(c2)CC(C)(C)C3NC(=O)O[C@@H]2CN3CCC2CC3)cc(C)c1OC(C)C (stereo partly drawn) [Example 194, (S)-quinuclidin-3-yl (5-(4-isopropoxy-3,5-dimethylphenyl)-2,2-dimethyl-2,3-dihydro-1H-inden-1-yl)carbamate] | 47.6 |  |
| O=C(NC1CCc2cc(-c3cccc(OC(F)(F)F)c3)ccc21)O[C@@H]1CN2CCC1CC2 (stereo partly drawn) [Example 8, (S)-quinuclidin-3-yl (5-(3-(trifluoromethoxy)phenyl)-2,3-dihydro-1H-inden-1-yl)carbamate] | 27.4 |  |
| COc1cc(F)c(-c2ccc3c(c2)CC(C)(C)C3NC(=O)O[C@@H]2CN3CCC2CC3)cc1F (stereo partly drawn) [Example 171, (S)-quinuclidin-3-yl (5-(2,5-difluoro-4-methoxyphenyl)-2,2-dimethyl-2,3-dihydro-1H-inden-1-yl)carbamate] | 17 |  |
| COc1cc2c(cc1-c1ccc(CC(C)C)cc1)CC(C)(C)C2NC(=O)O[C@@H]1CN2CCC1CC2 (stereo partly drawn) [Example 315, (S)-quinuclidin-3-yl (5-(4-isobutylphenyl)-6-methoxy-2,2-dimethyl-2,3-dihydro-1H-inden-1-yl)carbamate] |  | IC50: 11.3 nM |
| CCOc1ccc(-c2ccc3c(c2)CC(C)(C)C3NC(=O)O[C@@H]2CN3CCC2CC3)cc1F (stereo partly drawn) [Example 133, (S)-quinuclidin-3-yl (5-(4-ethoxy-3-fluorophenyl)-2,2-dimethyl-2,3-dihydro-1H-inden-1-yl)carbamate] | 22.6 |  |
| O=C(NC1CCc2ccc(-c3ccc(C(F)(F)F)cc3)cc21)O[C@@H]1CN2CCC1CC2 (stereo partly drawn) [Example 27, (S)-quinuclidin-3-yl (6-(4-(trifluoromethyl)phenyl)-2,3-dihydro-1H-inden-1-yl)carbamate] | 35.7 |  |
| O=C(NC1CCc2cc(-c3ccccc3Cl)ccc21)O[C@@H]1CN2CCC1CC2 (stereo partly drawn) [Example 10, (S)-quinuclidin-3-yl (5-(2-chlorophenyl)-2,3-dihydro-1H-inden-1-yl)carbamate] | 65.5 |  |
| O=C(NC1CCc2ccc(-c3cccc(F)c3)cc21)O[C@@H]1CN2CCC1CC2 (stereo partly drawn) [Example 29, (S)-quinuclidin-3-yl (6-(3-fluorophenyl)-2,3-dihydro-1H-inden-1-yl)carbamate] | 63 |  |
| CC1(C)Cc2ccc(-c3ccccc3F)cc2C1NC(=O)O[C@@H]1CN2CCC1CC2 (stereo partly drawn) [Example 57, (S)-quinuclidin-3-yl (6-(2-fluorophenyl)-2,2-dimethyl-2,3-dihydro-1H-inden-1-yl)carbamate] | 49.9 |  |
| CC(=O)c1sccc1-c1ccc2c(c1)CC(C)(C)C2NC(=O)O[C@@H]1CN2CCC1CC2 (stereo partly drawn) [Example 272, (S)-quinuclidin-3-yl (5-(2-acetylthiophen-3-yl)-2,2-dimethyl-2,3-dihydro-1H-inden-1-yl)carbamate] | 49.3 |  |
| CCOc1ccc(-c2ccc3c(c2)CC(C)(C)C3NC(=O)O[C@@H]2CN3CCC2CC3)c(C)c1 (stereo partly drawn) [Example 206, (S)-quinuclidin-3-yl (5-(4-ethoxy-2-methylphenyl)-2,2-dimethyl-2,3-dihydro-1H-inden-1-yl)carbamate] | 14 |  |
| COc1cccc(-c2ccc3c(c2)CC(C)(C)C3NC(=O)O[C@@H]2CN3CCC2CC3)c1OC (stereo partly drawn) [Example 165, (S)-quinuclidin-3-yl (5-(2,3-dimethoxyphenyl)-2,2-dimethyl-2,3-dihydro-1H-inden-1-yl)carbamate] | 15.6 |  |
| CCCCOc1ccc(-c2ccc3c(c2)CC(C)(C)C3NC(=O)O[C@@H]2CN3CCC2CC3)cn1 (stereo partly drawn) [Example 266, (S)-quinuclidin-3-yl (5-(6-butoxypyridin-3-yl)-2,2-dimethyl-2,3-dihydro-1H-inden-1-yl)carbamate] | 4.7 |  |
| CCCCOc1ccc(-c2cc3c(cc2OC)C(NC(=O)O[C@@H]2CN4CCC2CC4)C(C)(C)C3)cc1 (stereo partly drawn) [Example 324, (S)-quinuclidin-3-yl (5-(4-butoxyphenyl)-6-methoxy-2,2-dimethyl-2,3-dihydro-1H-inden-1-yl)carbamate] | 5.8 |  |

| SMILES | IC50 (Homo sapiens, Jurkat, 72 h) [nM] | other results |
| --- | --- | --- |
| COc1cccc(-c2ccc3c(c2)CC(C)(C)C3NC(=O)O[C@@H]2CN3CCC2CC3)c1 (stereo partly drawn) [Example 103, (S)-quinuclidin-3-yl (5-(3-methoxyphenyl)-2,2-dimethyl-2,3-dihydro-1H-inden-1-yl)carbamate] | 19.5 |  |
| CC1(C)Cc2cc(-c3cccc(OCCF)c3)ccc2C1NC(=O)O[C@@H]1CN2CCC1CC2 (stereo partly drawn) [Example 197, (S)-quinuclidin-3-yl (5-(3-(2-fluoroethoxy)phenyl)-2,2-dimethyl-2,3-dihydro-1H-inden-1-yl)carbamate] | 8.7 |  |
| CCc1cccc(-c2cc3c(cc2OC)C(NC(=O)O[C@@H]2CN4CCC2CC4)C(C)(C)C3)c1 (stereo partly drawn) [Example 334, (S)-quinuclidin-3-yl (5-(3-ethylphenyl)-6-methoxy-2,2-dimethyl-2,3-dihydro-1H-inden-1-yl)carbamate] | 20.9 |  |
| CC(C)Cc1cccc(-c2ccc3c(c2)CC(C)(C)C3NC(=O)O[C@@H]2CN3CCC2CC3)c1 (stereo partly drawn) [Example 269, (S)-quinuclidin-3-yl (5-(3-isobutylphenyl)-2,2-dimethyl-2,3-dihydro-1H-inden-1-yl)carbamate] | 6.5 |  |
| CCOc1cccc(-c2ccc3c(c2)CC(CC)(CC)C3NC(=O)O[C@@H]2CN3CCC2CC3)c1 (stereo partly drawn) [Example 290, (S)-quinuclidin-3-yl (5-(3-ethoxyphenyl)-2,2-diethyl-2,3-dihydro-1H-inden-1-yl)carbamate] | 12.3 |  |
| COc1cc2c(cc1-c1ccc(OC(C)C)cc1)CC(C)(C)C2NC(=O)O[C@@H]1CN2CCC1CC2 (stereo partly drawn) [Example 320, (S)-quinuclidin-3-yl (5-(4-isopropoxyphenyl)-6-methoxy-2,2-dimethyl-2,3-dihydro-1H-inden-1-yl)carbamate] | 8.5 |  |
| COCCOc1ccc(-c2ccc3c(c2)CC2(CC2)C3NC(=O)O[C@@H]2CN3CCC2CC3)cc1 (stereo partly drawn) [Example 395, (S)-quinuclidin-3-yl (5′-(4-(2-methoxyethoxy)phenyl)-1′,3′-dihydrospiro[cyclopropane-1,2′-inden]-1′-yl)carbamate] | 30.9 |  |
| CCCCOc1ccc(-c2ccc3c(c2)CC(C)(C)C3NC(=O)O[C@@H]2CN3CCC2CC3)cc1 (stereo partly drawn) [Example 270, (S)-quinuclidin-3-yl (5-(4-butoxyphenyl)-2,2-dimethyl-2,3-dihydro-1H-inden-1-yl)carbamate] | 2.3 |  |
| CC(C)(C)c1cccc(-c2ccc3c(c2)CC(C)(C)C3NC(=O)O[C@@H]2CN3CCC2CC3)c1 (stereo partly drawn) [Example 110, (S)-quinuclidin-3-yl (5-(3-(tert-butyl)phenyl)-2,2-dimethyl-2,3-dihydro-1H-inden-1-yl)carbamate] | 15.1 |  |
| CCCOc1cccc(F)c1-c1ccc2c(c1)CC(C)(C)C2NC(=O)O[C@@H]1CN2CCC1CC2 (stereo partly drawn) [Example 214, (S)-quinuclidin-3-yl (5-(2-fluoro-6-propoxyphenyl)-2,2-dimethyl-2,3-dihydro-1H-inden-1-yl)carbamate] | 64.2 |  |
| CC(C)c1cccc(-c2cc3c(cc2F)C(NC(=O)O[C@@H]2CN4CCC2CC4)C(C)(C)C3)c1 (stereo partly drawn) [Example 373, (S)-quinuclidin-3-yl (6-fluoro-5-(3-isopropylphenyl)-2,2-dimethyl-2,3-dihydro-1H-inden-1-yl)carbamate] | 31.2 |  |
| CC1(C)Cc2cc(-c3cccc4cnccc34)ccc2C1NC(=O)O[C@@H]1CN2CCC1CC2 (stereo partly drawn) [Example 141, (S)-quinuclidin-3-yl (5-(isoquinolin-5-yl)-2,2-dimethyl-2,3-dihydro-1H-inden-1-yl)carbamate] | 39.9 |  |
| CC1(C)Oc2cc(-c3cccc(OC(F)(F)F)c3)ccc2C1NC(=O)O[C@@H]1CN2CCC1CC2 (stereo partly drawn) [Example 410, (S)-quinuclidin-3-yl (2,2-dimethyl-6-(3-(trifluoromethoxy)phenyl)-2,3-dihydrobenzofuran-3-yl)carbamate] | 13 |  |
| COc1ccc(-c2ccc3c(c2)CC(C)(C)C3NC(=O)O[C@@H]2CN3CCC2CC3)c(Cl)c1 (stereo partly drawn) [Example 123, (S)-quinuclidin-3-yl (5-(2-chloro-4-methoxyphenyl)-2,2-dimethyl-2,3-dihydro-1H-inden-1-yl)carbamate] | 9.3 |  |
| O=C(NC1c2ccc(-c3cccc(C(F)(F)F)c3)cc2CC12CC2)O[C@@H]1CN2CCC1CC2 (stereo partly drawn) [Example 394, (S)-quinuclidin-3-yl (5′-(3-(trifluoromethyl)phenyl)-1′,3′-dihydrospiro[cyclopropane-1,2′-inden]-1′-yl)carbamate] | 48.8 |  |
| CCC1(CC)Cc2cc(-c3ccc(C4CC4)cc3)ccc2C1NC(=O)O[C@@H]1CN2CCC1CC2 (stereo partly drawn) [Example 281, (S)-quinuclidin-3-yl (5-(4-cyclopropylphenyl)-2,2-diethyl-2,3-dihydro-1H-inden-1-yl)carbamate] | 5 |  |
| CCCOc1c(C)cc(-c2ccc3c(c2)CC(CC)(CC)C3NC(=O)O[C@@H]2CN3CCC2CC3)cc1C (stereo partly drawn) [Example 304, (S)-quinuclidin-3-yl (5-(3,5-dimethyl-4-propoxyphenyl)-2,2-diethyl-2,3-dihydro-1H-inden-1-yl)carbamate] |  | IC50 (read-out: IC50): 23.5 nM |
| O=C(NC1CCc2ccc(-c3cccc(C(F)(F)F)c3)cc21)O[C@@H]1CN2CCC1CC2 (stereo partly drawn) [Example 31, (S)-quinuclidin-3-yl (6-(3-(trifluoromethyl)phenyl)-2,3-dihydro-1H-inden-1-yl)carbamate] | 65.5 |  |
